Laboratory results: ChEMBL document CHEMBL1201862, “PubChem BioAssay data set” (2004)
The source made the active and inactive calls.

What was measured:
[1] = biological target: T1, Polyadenylate-binding protein 1 (Homo sapiens, UniProt P11940); experiment: MLLE binding blockers, Cy5 peptide tracer – biochemical, fluorescence polarization, Cy5-PAM2 peptide, secondary, miRNA deadenylation inhibitor project, dose response (AID 602260); assay type: functional; settings: read-out: IC50_Mean
[2] = biological target: T1, Polyadenylate-binding protein 1; experiment: MLLE domain peptide-binding blockers, IC50 – biochemical, fluorescence polarization, FITC-PAM2 peptide, dose response (AID 602259); assay type: functional; settings: read-out: IC50_Mean
[3] = biological target: Major prion protein (Homo sapiens, UniProt P04156); assay type: functional, cell-based
[4] = biological target: Protein-tyrosine kinase 2-beta (Homo sapiens, UniProt Q14289);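 further: potency of inhibitors of PYK2 kinase phosphorylation of poly-GT substrate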
[5] = cells
[6] = HIV-1 AD8 envelope cell-cell fusion blockers – cherry-pick, dose response (AID 652062); assay type: functional, cell-based;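 further: luciferase signal from cell-cell fusion driven by HIV-1 clade B AD8 Env; potency is for inhibitors of fusion seen as a drop in luminescence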
[7] = viability loss in CEM21 cells – cell-based, CellTiter-Glo luminescence, cherry-picked, cytotoxicity control for viral fusion inhibitor project, dose response (AID 652042); assay type: functional;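 further: potency for signal decrease meaning cytotoxicity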
[8] = biological target: Paired box protein Pax-8 (Homo sapiens, UniProt Q06710); experiment: PAX8 transcriptional activity inhibition in RMG-I – RMG-I cells, luciferase, cherry-pick, dose response (AID 687027); assay type: functional, cell-based;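 further: luciferase reporter driven by Pax8 target thyroperoxidase promoter measured by SteadyGlo luminescence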
[9] = HEK-293T viability loss after treatment – luminescence, T-cell screen hits, cytotoxicity control for TCR NF-kB inhibitor project, dose response (AID 489026); assay type: functional, cell-based;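 further: cells exposed to compound about 14 hours before the viability readout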
[10] = biological target: T2, Histone-lysine N-methyltransferase NSD2 (Homo sapiens, UniProt O96028); assay type: biochemical
T2 sequence (O96028 whole entry): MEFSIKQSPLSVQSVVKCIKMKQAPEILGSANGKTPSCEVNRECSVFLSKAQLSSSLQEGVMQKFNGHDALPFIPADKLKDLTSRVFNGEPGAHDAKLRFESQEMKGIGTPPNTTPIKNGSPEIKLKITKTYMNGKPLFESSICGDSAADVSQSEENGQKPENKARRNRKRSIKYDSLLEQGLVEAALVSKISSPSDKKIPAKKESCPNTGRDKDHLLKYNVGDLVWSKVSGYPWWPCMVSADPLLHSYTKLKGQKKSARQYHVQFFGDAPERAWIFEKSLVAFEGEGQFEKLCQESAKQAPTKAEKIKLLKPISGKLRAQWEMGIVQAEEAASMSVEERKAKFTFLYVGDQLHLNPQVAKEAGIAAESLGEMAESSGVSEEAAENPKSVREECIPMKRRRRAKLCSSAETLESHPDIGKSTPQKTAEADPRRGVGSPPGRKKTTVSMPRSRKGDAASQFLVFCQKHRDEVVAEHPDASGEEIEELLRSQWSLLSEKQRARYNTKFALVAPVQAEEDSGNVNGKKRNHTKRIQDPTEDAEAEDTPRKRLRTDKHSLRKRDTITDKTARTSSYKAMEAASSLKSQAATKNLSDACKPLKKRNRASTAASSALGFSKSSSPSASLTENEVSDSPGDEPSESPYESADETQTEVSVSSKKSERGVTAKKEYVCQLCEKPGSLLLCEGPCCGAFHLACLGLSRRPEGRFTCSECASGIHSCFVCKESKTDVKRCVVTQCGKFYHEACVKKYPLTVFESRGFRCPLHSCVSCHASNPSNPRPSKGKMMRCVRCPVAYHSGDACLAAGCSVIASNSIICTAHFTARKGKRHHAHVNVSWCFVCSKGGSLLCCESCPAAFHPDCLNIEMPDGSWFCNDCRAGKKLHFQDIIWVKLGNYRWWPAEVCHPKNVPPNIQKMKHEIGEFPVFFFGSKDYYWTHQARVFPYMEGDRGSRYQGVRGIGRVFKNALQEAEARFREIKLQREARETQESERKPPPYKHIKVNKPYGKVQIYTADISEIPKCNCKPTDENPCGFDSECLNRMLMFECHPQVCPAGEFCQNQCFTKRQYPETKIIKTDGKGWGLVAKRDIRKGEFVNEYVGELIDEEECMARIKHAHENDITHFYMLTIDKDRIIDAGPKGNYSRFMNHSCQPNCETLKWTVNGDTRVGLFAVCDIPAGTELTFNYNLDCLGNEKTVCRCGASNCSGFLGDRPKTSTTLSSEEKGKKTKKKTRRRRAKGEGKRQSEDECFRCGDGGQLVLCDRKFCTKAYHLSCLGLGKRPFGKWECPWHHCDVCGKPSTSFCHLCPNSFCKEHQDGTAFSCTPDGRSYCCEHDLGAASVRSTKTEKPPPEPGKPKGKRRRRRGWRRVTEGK

[11] = blockers of HIV-1 envelope-mediated cell-cell fusion – cherry-pick, dose response (AID 652057); assay type: functional, cell-based
[12] = off-target signal loss in HeLa-CEM21 co-culture – HeLa F-luc CTL cells, cherry-picked, counter-screen for HIV-1 Env fusion inhibitor project, dose response (AID 652040); assay type: functional, cell-based;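 further: potency for signal decrease marking cytotoxic or nonspecific inhibition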
[13] = blockers of HIV-1 ZM109 envelope-driven cell-cell fusion – HeLa effector, CEM target cells, luciferase, cherry-pick, dose response (AID 652058); assay type: functional, cell-based;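 further: luciferase signal from HIV-1 Env mediated cell-cell fusion of effector and target cells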
[14] = biological target: Large T antigen (Simian virus 40, UniProt P03070); assay type: functional, Betapolyomavirus macacae;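 further: Confirmatory-stage PubChem screen for compounds that inhibit SV40 T antigen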
[15] = biological target: T3, RNA-binding protein pos-1 (Caenorhabditis elegans, UniProt G5EF15); experiment: disruptors of C. elegans POS-1 RNA interaction – biochemical, fluorescence polarization, dose response (AID 1964);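 further: purified POS-1 fused to maltose binding protein made in E. coli; potency of compounds blocking POS-1 binding to fluorescent RNA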
T3 sequence (G5EF15 whole entry): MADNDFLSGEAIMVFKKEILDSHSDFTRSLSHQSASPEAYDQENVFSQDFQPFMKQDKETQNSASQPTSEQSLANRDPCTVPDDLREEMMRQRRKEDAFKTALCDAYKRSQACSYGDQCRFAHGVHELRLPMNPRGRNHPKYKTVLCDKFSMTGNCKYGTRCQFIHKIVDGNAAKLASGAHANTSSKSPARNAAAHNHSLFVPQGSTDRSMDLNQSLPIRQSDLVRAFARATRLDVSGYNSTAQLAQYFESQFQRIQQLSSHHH

[16] = biological target: T4, Caspase-6 (Homo sapiens, UniProt P55212); experiment: inhibition of CASP6 peptide cleavage – biochemical, VEID-R110 fluorescence, cherry-pick, dose response (AID 720632)
T4 sequence (P55212 whole entry): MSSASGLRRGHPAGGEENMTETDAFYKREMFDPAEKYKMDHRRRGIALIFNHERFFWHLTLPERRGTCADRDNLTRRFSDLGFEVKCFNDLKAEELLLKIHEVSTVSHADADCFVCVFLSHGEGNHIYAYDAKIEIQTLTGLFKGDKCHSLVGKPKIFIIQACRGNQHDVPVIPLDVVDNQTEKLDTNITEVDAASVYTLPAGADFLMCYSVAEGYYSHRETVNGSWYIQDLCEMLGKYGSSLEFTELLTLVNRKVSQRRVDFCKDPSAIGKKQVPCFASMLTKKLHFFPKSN

[17] = fluconazole-exposed Candida albicans growth modulators – fluorescence, retest, confirmation (AID 2467); assay type: functional, cell-based
[18] = biological target: T5, Zinc finger protein mex-5 (Caenorhabditis elegans, UniProt Q9XUB2); experiment: potency of MEX-5 RNA-binding blockers – biochemical, C. elegans, fluorescence polarization, dose response (AID 1960)
T5 sequence (Q9XUB2 whole entry): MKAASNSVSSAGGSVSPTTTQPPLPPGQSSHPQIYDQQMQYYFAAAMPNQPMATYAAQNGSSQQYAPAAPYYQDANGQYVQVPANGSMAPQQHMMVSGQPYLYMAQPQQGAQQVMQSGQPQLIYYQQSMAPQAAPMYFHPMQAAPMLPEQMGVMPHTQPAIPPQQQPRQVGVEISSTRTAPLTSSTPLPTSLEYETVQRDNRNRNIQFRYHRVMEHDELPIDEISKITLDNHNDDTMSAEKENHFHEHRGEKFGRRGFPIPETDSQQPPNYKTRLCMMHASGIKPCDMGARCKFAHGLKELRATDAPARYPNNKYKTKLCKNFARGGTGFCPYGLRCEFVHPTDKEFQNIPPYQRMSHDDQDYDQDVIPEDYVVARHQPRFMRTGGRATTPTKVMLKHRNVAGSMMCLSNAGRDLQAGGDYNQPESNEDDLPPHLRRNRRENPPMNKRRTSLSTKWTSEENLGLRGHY

[19] = NIH-3T3 fibroblast cytotoxicity, dose response, cytotoxicity control, cell-based, fluorescence, Alamar Blue, secondary assay (AID 2327); assay type: functional;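 further: NIH-3T3 mouse fibroblasts cultured with fluconazole at 8 µg/mL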
[20] = HEK-293T cell viability reduction – luminescence, B-cell screen hits, cytotoxicity control for BCR NF-kB inhibitor project, dose response (AID 489021); assay type: functional, cell-based;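 further: HEK-293T cells carrying an NF-kB luciferase reporter; cells exposed to compound for about 14 hours before viability readout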
[21] = tested on: H9c2; experiment: cells; assay type: functional, cell-based; settings: Rattus norvegicus, H9c2, Myocardium;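 further: confirmatory concentration-response retest of ultra-high-throughput screening hits for modulation of myocardial damage; cell death induced by hydrogen peroxide oxidative stress; compound pretreatment for 60 min then peroxide exposure for 2 h; potency is for protecting the cells against peroxide damage rather than for killing them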
[22] = reduced cellular PGC1a acetyl-lysine signal – cell-based, cherry-picked samples, dose response (AID 720514); assay type: functional;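 further: potency may reflect raised or lowered acetylation signal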
[23] = biological target: T6, Tyrosyl-DNA phosphodiesterase 2 (Homo sapiens, UniProt O95551); experiment: potency against TDP2 phosphodiesterase activity – biochemical, epi absorbance, IC50, dose response (AID 743297)
T6 sequence (O95551 whole entry): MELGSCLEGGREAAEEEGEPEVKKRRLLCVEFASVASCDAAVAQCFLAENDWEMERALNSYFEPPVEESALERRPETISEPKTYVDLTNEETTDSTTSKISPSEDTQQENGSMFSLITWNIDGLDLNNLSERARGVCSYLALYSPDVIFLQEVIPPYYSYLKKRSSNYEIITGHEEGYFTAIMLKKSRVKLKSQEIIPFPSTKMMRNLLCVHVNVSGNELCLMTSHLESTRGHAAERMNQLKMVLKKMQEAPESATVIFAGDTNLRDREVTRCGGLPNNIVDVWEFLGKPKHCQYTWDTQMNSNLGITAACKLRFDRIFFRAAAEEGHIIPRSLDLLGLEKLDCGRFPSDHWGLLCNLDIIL

[24] = OVCAR8 cell viability loss – plate reader, dry powder samples, PAX8 project, dose response (AID 743197); assay type: functional, cell-based; settings: OVCAR-8
[25] = OVCAR-3 cell viability loss – plate reader, dry powder samples, PAX8 inhibitor project, dose response (AID 743044); assay type: functional, cell-based
[26] = IGROV1 cell killing – plate reader, dry powder samples, PAX8 inhibitor project, dose response (AID 743043); assay type: functional, cell-based; settings: IGROV-1
[27] = Dd2 parasite growth inhibition in erythrocytes – SYBR Green, dry powder samples, set 9, dose response (AID 1159568); assay type: functional, cell-based
[28] = blockade of melanocortin 4 receptor signaling – cell-based, plate reader, cherry pick, counter-screen for LGR2 antagonist project, dose response (AID 743444); assay type: functional;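 further: transfected HEK 293 cells stimulated with alpha-MSH peptide; potency of inhibitors of the alpha-MSH evoked signal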
[29] = biological target: Cytochrome P450 3A4 (Homo sapiens, UniProt P08684); settings: Potency;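 further: confirmatory qHTS run detecting inhibitors and substrates of CYP3A4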
[30] = blockers of bursicon-stimulated LGR2 cAMP reporter – cell-based, HEK293, CRE-luciferase reporter, cherry pick, set 2, dose response (AID 743343); assay type: functional;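 further: transfected cells were stimulated with diluted bursicon conditioned medium after compound addition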

SMILES: Cc1nnc(NC(=O)CSc2nc(C(C)C)nc3ccccc23)s1
- IC50 [1]: > 66 µM (inactive)
- IC50 [2]: > 66 µM (inactive)
- IC50 [3]: 1.83 µM (active)
- IC50 [4]: > 69.5 µM (not active)
- IC50 [5]: > 138 µM (inactive)

SMILES: COc1cc(-c2c(-c3cc(OC)c(OC)c(OC)c3)noc2C)ccc1F
- AC50 [6]: 29.7 µM (active)
- AC50 [7]: 21.3 µM (active)
- AC50 [8]: 2.78 µM (active)
- IC50 [9]: 75.9 µM (inactive)

SMILES: O=C1NC(=S)NC(=O)C1=NNc1cc(S(=O)(=O)Nc2ccc(Cl)cc2)ccc1Cl
- AC50 [10]: > 20 µM (inactive)

SMILES: Cc1cc(SC(C)C(=O)O)nc2ccccc12 (configuration not stated)
- IC50 [3]: 8.85 µM (active)
- IC50 [5]: > 138 µM (inactive)

SMILES: CC(C)(C)n1nnnc1C(c1cccnc1)N(Cc1ccccc1)Cc1cccs1 (configuration not stated)
- AC50 [6]: 17.5 µM (active)
- AC50 [7]: 52.5 µM (active)
- AC50 [11]: 5.51 µM (active)
- AC50 [12]: 8.29 µM (active)
- AC50 [13]: 7 µM (active)

SMILES: CCOc1cc(/C=C2\C(=O)NN(c3ccccc3)C2=O)cc([N+](=O)[O-])c1O
- IC50 [14]: > 100 µM (active)
- EC50 [15]: 129 µM (active)
- AC50 [16]: 36.8 µM (active)
- EC50 [17]: > 38 µM (not active)
- EC50 [18]: 36.2 µM (active)
- EC50 [19]: > 160 µM (inactive)
- AC50 [10]: > 20 µM (inactive)

SMILES: COc1ccc(C(=O)Nc2cccc(NC(=O)c3ccc(OC)c(OC)c3)n2)cc1OC
- IC50 [20]: > 80 µM (inactive)
- IC50 [21]: > 79 µM (inactive)
- AC50 [22]: 7.99 µM (active)

SMILES: CCOc1ccc2nc(NCCNC(=O)Nc3ccccc3)c(C#N)cc2c1
- AC50 [22]: 19.5 µM (active)

SMILES: O=C(Nc1c(-c2ccc3c(c2)OCO3)[nH][nH]c1=O)c1ccccc1
- IC50 [23]: 9.43 µM (active)
- AC50 [16]: 47.5 µM (active)

SMILES: COc1ccccc1NC(=O)N1CCCCN2[C@@H](CO)[C@@H](c3ccc(C#Cc4ccccc4)cc3)[C@@H]2C1
- AC50 [24]: 35 µM (active)
- AC50 [8]: 4.9 µM (active)
- AC50 [25]: 19.3 µM (active)
- AC50 [26]: 39 µM (active)

SMILES: CCOC(=O)N1CCN(C(=O)C[C@H]2C[C@@]3(C(=O)OC)C(=C[C@H](C(C)(C)C)O[C@@H]3C)N(CCC3=CCCCC3)C2=O)CC1
- AC50 [6]: 3.46 µM (active)
- AC50 [7]: 25.6 µM (active)
- AC50 [11]: 2.49 µM (active)
- AC50 [12]: 4.21 µM (active)
- AC50 [13]: 3.45 µM (active)

SMILES: C[C@H]1CCCCO[C@@H](CN(C)Cc2ccc(C(F)(F)F)cc2)[C@@H](C)CN([C@@H](C)CO)C(=O)c2cc(NS(=O)(=O)c3ccc(F)cc3)ccc2O1
- AC50 [24]: 51.3 µM (active)
- AC50 [8]: 6.82 µM (active)
- AC50 [25]: 34.2 µM (active)
- AC50 [26]: 39.4 µM (active)

SMILES: N#C[C@@H]1[C@H](c2ccccc2C2=CCCC2)[C@H](CO)N1C(=O)C1CCOCC1
- AC50 [27]: > 39 µM (inactive)

SMILES: COc1ccc(/C=C/C(=O)Nc2ccccc2C(=O)O)cc1OC
- AC50 [28]: 0.594 µM (active)
- AC50 [29]: 10 µM (inconclusive)
- AC50 [30]: 0.587 µM (active)
